We go through 55 molecules from ChEMBL document CHEMBL1150239, “Molecular characteristics for solid-state limited solubility” (J Med Chem, 2008).

The conditions of series [1]: buffer, pH 10.
Series [2] in a line: Dissociation constant, pKa of the compound. Type of series: physicochemical.

The molecule `CCN1c2ncccc2C(=O)N(C)c2ccc(Cl)nc21` gave a logS0 in series [1] of -4.11. Regarding `CCN1c2ccccc2N(C)C(=O)c2cccnc21`, the logS0 in series [1] is -3.32. Still for that read-out and setting: with `CN1C(=O)c2cccnc2N(C(C)(C)C)c2ncccc21` the figure was -4.85. As to `COC(=O)c1cc2nc([S+]([O-])Cc3nccc(OC)c3OC)[nH]c2cc1C` (stereo not drawn), in series [1], the logS0 is reported as -4.41. For the molecule `CCCCn1c(C)nc2c1c(=O)n(C)c(=O)n2C`, the logS0 in series [1] was -1.75.

The molecule `CCCCCC1(CC)C(=O)NC(=O)NC1=O` showed a logS0 in series [1] of -2.34. `CCOC(=O)OCn1c([S+]([O-])Cc2nccc(OC)c2OC)nc2cc(C(=O)OC)c(C)cc21` (stereo not drawn) showed a logS0 in series [1] of -5.21. With `C=CCC1(CCCC)C(=O)NC(=O)NC1=O`, in series [1], the logS0 is on record as -2.11. In series [1], `CCN1c2ncccc2C(=O)N(C)c2c(C)cc(OC)nc21` returned a logS0 of -2.62.

On to `Cc1ccnc2c1NC(C#N)c1cccnc1N2C1CC1` (stereo not drawn), for which, in series [1], the logS0 is -4.74.

With `Cc1ccc2c(c1)C(=O)Nc1cc(N)ccc1O2`, in series [1], the logS0 is reported as -3.93. Same read-out and setting: the value for `CCCCC1(CC=C(C)C)C(=O)NC(=O)NC1=O` was -3.55; that for `CN1C(=O)c2cccnc2Oc2ccccc21` was -3.76.

A word on the pKa: it is the negative logarithm of the acid dissociation constant. Molecule `CC(C(=O)O)c1ccc(N2Cc3ccccc3C2=O)cc1` (single isomer, unassigned; (+)) [INDOPROFEN] came in with a logS0 in series [1] of -4.72. The molecule further showed a pKa in series [2] of 4.6. In the case of `C=CCOc1ccc(CC(=O)O)cc1Cl` [ALCLOFENAC], the logS0 in series [1] was -3.13.

`CCC[S+]([O-])CCCN(CC)CC(O)COc1ccc(C#N)cc1` (stereo not drawn) [ALMOKALANT]: in series [1], the logS0 is on record as -1.17. On to `C=CCc1ccccc1OCC(O)CNC(C)C` (stereo not drawn) [ALPRENOLOL], for which, in series [1], the logS0 was -2.83. In series [1], `CCCCC[C@H](O)/C=C/[C@H]1[C@H](O)CC(=O)[C@@H]1CCCCCCC(=O)O` [ALPROSTADIL] yielded a logS0 of -3.67. `CCOC(=O)c1ccc(N)cc1` [BENZOCAINE] gave a logS0 in series [1] of -2.34. Take `O=C(O)c1ccccc1` [BENZOIC ACID]: the logS0 in series [1] is given as -1.58.

`C[C@H]1C[C@H]2[C@@H]3CCC4=CC(=O)C=C[C@]4(C)[C@@]3(F)[C@@H](O)C[C@]2(C)[C@@]1(O)C(=O)CO` [BETAMETHASONE] returned a logS0 in series [1] of -3.77. In turn, `C=C(Br)CC1(C(C)CC)C(=O)NC(=O)NC1=O` (stereo not drawn) [BUTALLYLONAL] displayed a logS0 in series [1] of -2.65. Molecule `CCCNC(=O)NS(=O)(=O)c1ccc(Cl)cc1` [CHLORPROPAMIDE] displayed a logS0 in series [1] of -3.3. This molecule also showed a pKa in series [2] of 4.8. In series [1], `COC(=O)[C@H]1[C@@H](OC(=O)c2ccccc2)C[C@@H]2CC[C@H]1N2C` [COCAINE] yielded a logS0 of -2.25. In series [1], `C[C@]12C[C@H](O)[C@H]3[C@@H](CCC4=CC(=O)CC[C@@]43C)[C@@H]1CC[C@@H]2C(=O)CO` [CORTICOSTERONE] showed a logS0 of -3.28. Same read-out and setting: the value for `CC(=O)OCC(=O)[C@@]1(O)CC[C@H]2[C@@H]3CCC4=CC(=O)CC[C@]4(C)[C@H]3C(=O)C[C@@]21C` [CORTISONE ACETATE] was -4.21. On the same count and under the same terms, with `CCC1(C2=CCCCC2)C(=O)NC(=O)NC1=O` [CYCLOBARBITAL] the figure was -2.12; with `CC(C)Nc1cccnc1N1CCN(C(=O)c2cc3cc(NS(C)(=O)=O)ccc3[nH]2)CC1` [DELAVIRDINE], -5.74.

For `NCCN1C(=O)CN=C(c2ccccc2F)c2cc(Cl)ccc21` [DESALKYLFLURAZEPAM], in series [1], the logS0 is recorded as -3.72. Moreover, in series [2], the pKa is 11.6. On to `C[C@@H]1C[C@H]2[C@@H]3CCC4=CC(=O)C=C[C@]4(C)[C@@]3(F)[C@@H](O)C[C@]2(C)[C@@]1(O)C(=O)CO` [DEXAMETHASONE], for which the logS0 in series [1] is on record as -3.59. Molecule `CCCCC[C@H](O)/C=C/[C@H]1[C@H](O)CC(=O)[C@@H]1C/C=C\CCCC(=O)O` [DINOPROSTONE] came in with a logS0 in series [1] of -2.47. Regarding `CC(C)N(CCC(C(N)=O)(c1ccccc1)c1ccccn1)C(C)C` (stereo not drawn) [DISOPYRAMIDE], the logS0 in series [1] is listed as -2.38. In addition, the pKa in series [2] worked out at 10.1. The matching figures for `CCOC(=O)c1ccc(O)cc1` [ETHYLPARABEN]: -2.38 and 8.3. In series [1], `COC1=CC(=O)C[C@@H](C)[C@]12Oc1c(Cl)c(OC)cc(OC)c1C2=O` [GRISEOFULVIN] returned a logS0 of -4.83. For the molecule `CCC1(C2=CCCCCC2)C(=O)NC(=O)NC1=O` [HEPTABARBITAL], in series [1], the logS0 is on record as -2.91. Molecule `CC(=O)OCC(=O)[C@@]1(O)CC[C@H]2[C@@H]3CCC4=CC(=O)CC[C@]4(C)[C@H]3[C@@H](O)C[C@@]21C` [HYDROCORTISONE ACETATE] gave a logS0 in series [1] of -4.34.

Turning to `CC(=O)N1CCN(c2ccc(OC[C@H]3CO[C@](Cn4ccnc4)(c4ccc(Cl)cc4Cl)O3)cc2)CC1` [KETOCONAZOLE], the logS0 in series [1] was -3.8. As to `CC(CCc1ccccc1)NCC(O)c1ccc(O)c(C(N)=O)c1` (stereo not drawn) [LABETALOL], the logS0 in series [1] is -3.41. In series [1], `O=C1Nc2ccc(Cl)cc2C(c2ccccc2Cl)=NC1O` (stereo not drawn) [LORAZEPAM] had a logS0 of -3.74. This molecule also had a pKa in series [2] of 11.5. In series [1], `Cc1ccccc1N1C(=O)c2cc(S(N)(=O)=O)c(Cl)cc2NC1C` (stereo not drawn) [METOLAZONE] came in with a logS0 of -4.33. In series [1], `COc1ccc2[nH]c([S+]([O-])Cc3ncc(C)c(OC)c3C)nc2c1` (stereo not drawn) [OMEPRAZOLE] gave a logS0 of -3.4. The molecule further registered a pKa in series [2] of 8.9. For `Nc1ccc(/N=N/c2ccccc2)c(N)n1` [PHENAZOPYRIDINE], in series [1], the logS0 is -4.53. In turn, `O=C1NC(=O)C(c2ccccc2)(c2ccccc2)N1` [PHENYTOIN] yielded a logS0 in series [1] of -4.15. In turn, `CN1C(C(=O)Nc2ccccn2)=C(O)c2ccccc2S1(=O)=O` [PIROXICAM] gave a logS0 in series [1] of -4.03. With `CC(=O)OCC(=O)[C@@]1(O)CC[C@H]2[C@@H]3CCC4=CC(=O)C=C[C@]4(C)[C@H]3[C@@H](O)C[C@@]21C` [PREDNISOLONE ACETATE], the logS0 in series [1] is reported as -4.37. As for `COc1cc(NC(C)CCCN)c2ncccc2c1` (stereo not drawn) [PRIMAQUINE], the logS0 in series [1] was -2.52. Still for that read-out and setting: the value for `CCN(CC)CCOC(=O)c1ccc(N)cc1` [PROCAINE] was -1.78; that for `CC(C)NCC(O)COc1cccc2ccccc12` (stereo not drawn) [PROPRANOLOL] was -3.92.

In the case of `CCC1(C2=CC3CCC(C2)C3)C(=O)NC(=O)NC1=O` (stereo not drawn) [REPOSAL], the logS0 in series [1] was -2.7. Regarding `O=C(O)c1ccccc1O` [SALICYLIC ACID], the logS0 in series [1] was -1.8. The molecule `C=CCC1(C(C)CCC)C(=O)NC(=O)NC1=O` (stereo not drawn) [SECOBARBITAL] displayed a logS0 in series [1] of -2.36. For the same molecule, in series [2], the pKa was determined as 7.8. `CC(=O)OCC(=O)[C@@]1(O)[C@H](OC(C)=O)C[C@H]2[C@@H]3CCC4=CC(=O)C=C[C@]4(C)[C@@]3(F)[C@@H](O)C[C@@]21C` [TRIAMCINOLONE DIACETATE] returned a logS0 in series [1] of -4.31. In series [1], `Cc1nnc2n1-c1ccc(Cl)cc1C(c1ccccc1Cl)=NC2` [TRIAZOLAM] yielded a logS0 of -4.04. On the same count and under the same terms, with `COc1cc2c(N)nc(N3CCN(C(=O)OCC(C)(C)O)CC3)nc2c(OC)c1OC` [TRIMAZOSIN] the figure was -3.64; with `CC/C=C(\C)C1(CC)C(=O)NC(=O)NC1=O` [VINBARBITAL], -2.3.
